# Measured values taken from ChEMBL document CHEMBL3867433, “Synthesis and antimicrobial activity of styryl/pyrrolyl/pyrazolyl sulfonylmethyl-1,3,4-oxadiazolyl amines and styryl/pyrrolyl/pyrazolyl sulfonylmethyl-1,3,4-thiadiazolyl amines” (2016).
# Assays:
# Type in all cases: functional
# Pseudomonas aeruginosa [1] = test: Antibacterial activity against Pseudomonas aeruginosa at 25 ug/well after 24 hrs by agar well diffusion method; conditions: read-out: DIZ
# Bacillus subtilis [2] = test: Antibacterial activity against Bacillus subtilis at 50 ug/well after 24 hrs by agar well diffusion method; conditions: read-out: DIZ
# Aspergillus niger [3] = test: Antifungal activity against Aspergillus niger assessed as inhibition of spore germination at 25 ug/well after 48 hrs by agar well diffusion method; conditions: read-out: DIZ
# Bacillus subtilis [4] = test: Antibacterial activity against Bacillus subtilis at 25 ug/well after 24 hrs by agar well diffusion method; conditions: read-out: DIZ
# Staphylococcus aureus [5] = test: Antibacterial activity against Staphylococcus aureus after 24 hrs by broth dilution method
# Pseudomonas aeruginosa [6] = test: Bactericidal activity against Pseudomonas aeruginosa after 24 hrs
# Staphylococcus aureus [7] = test: Antibacterial activity against Staphylococcus aureus at 12.5 ug/well after 24 hrs by agar well diffusion method; conditions: read-out: DIZ
# [8] = Antifungal activity against Penicillium chrysogenum assessed as inhibition of spore germination after 48 hrs by broth dilution method
# Staphylococcus aureus [9] = test: Antibacterial activity against Staphylococcus aureus at 25 ug/well after 24 hrs by agar well diffusion method; conditions: read-out: DIZ
# Bacillus subtilis [10] = test: Antibacterial activity against Bacillus subtilis at 100 ug/well after 24 hrs by agar well diffusion method; conditions: read-out: DIZ
# [11] = Antifungal activity against Penicillium chrysogenum assessed as inhibition of spore germination at 12.5 ug/well after 48 hrs by agar well diffusion method
# Pseudomonas aeruginosa [12] = test: Ratio of MBC to MIC for Pseudomonas aeruginosa
# [13] = Antifungal activity against Penicillium chrysogenum assessed as inhibition of spore germination at 25 ug/well after 48 hrs by agar well diffusion method
# Klebsiella pneumoniae [14] = test: Antibacterial activity against Klebsiella pneumoniae at 25 ug/well after 24 hrs by agar well diffusion method; conditions: read-out: DIZ
# Aspergillus niger [15] = test: Antifungal activity against Aspergillus niger assessed as inhibition of spore germination at 50 ug/well after 48 hrs by agar well diffusion method; conditions: read-out: DIZ
# Aspergillus niger [16] = test: Fungicidal activity against Aspergillus niger assessed as inhibition of spore germination after 48 hrs
# Staphylococcus aureus [17] = test: Bactericidal activity against Staphylococcus aureus after 24 hrs
# Staphylococcus aureus [18] = test: Antibacterial activity against Staphylococcus aureus at 100 ug/well after 24 hrs by agar well diffusion method; conditions: read-out: DIZ
# Aspergillus niger [19] = test: Antifungal activity against Aspergillus niger assessed as inhibition of spore germination after 48 hrs by broth dilution method
# [20] = Antifungal activity against Penicillium chrysogenum assessed as inhibition of spore germination at 50 ug/well after 48 hrs by agar well diffusion method
# Klebsiella pneumoniae [21] = test: Antibacterial activity against Klebsiella pneumoniae at 12.5 ug/well after 24 hrs by agar well diffusion method; conditions: read-out: DIZ
# Pseudomonas aeruginosa [22] = test: Antibacterial activity against Pseudomonas aeruginosa at 100 ug/well after 24 hrs by agar well diffusion method; conditions: read-out: DIZ
# Bacillus subtilis [23] = test: Bactericidal activity against Bacillus subtilis after 24 hrs
# Klebsiella pneumoniae [24] = test: Antibacterial activity against Klebsiella pneumoniae at 50 ug/well after 24 hrs by agar well diffusion method; conditions: read-out: DIZ
# Penicillium chrysogenum [25] = test: Fungicidal activity against Penicillium chrysogenum assessed as inhibition of spore germination after 48 hrs
# Klebsiella pneumoniae [26] = test: Antibacterial activity against Klebsiella pneumoniae after 24 hrs by broth dilution method
# Aspergillus niger [27] = test: Antifungal activity against Aspergillus niger assessed as inhibition of spore germination at 12.5 ug/well after 48 hrs by agar well diffusion method; conditions: read-out: DIZ
# Pseudomonas aeruginosa [28] = test: Antibacterial activity against Pseudomonas aeruginosa after 24 hrs by broth dilution method
# Klebsiella pneumoniae [29] = test: Bactericidal activity against Klebsiella pneumoniae after 24 hrs
# Klebsiella pneumoniae [30] = test: Antibacterial activity against Klebsiella pneumoniae at 100 ug/well after 24 hrs by agar well diffusion method; conditions: read-out: DIZ
# Penicillium chrysogenum [31] = test: Ratio of MFC to MIC for Penicillium chrysogenum
# [32] = Antifungal activity against Penicillium chrysogenum assessed as inhibition of spore germination at 100 ug/well after 48 hrs by agar well diffusion method
# Aspergillus niger [33] = test: Antifungal activity against Aspergillus niger assessed as inhibition of spore germination at 100 ug/well after 48 hrs by agar well diffusion method; conditions: read-out: DIZ
# Pseudomonas aeruginosa [34] = test: Antibacterial activity against Pseudomonas aeruginosa at 50 ug/well after 24 hrs by agar well diffusion method; conditions: read-out: DIZ
# Bacillus subtilis [35] = test: Antibacterial activity against Bacillus subtilis after 24 hrs by broth dilution method
# Bacillus subtilis [36] = test: Antibacterial activity against Bacillus subtilis at 12.5 ug/well after 24 hrs by agar well diffusion method; conditions: read-out: DIZ
# Staphylococcus aureus [37] = test: Antibacterial activity against Staphylococcus aureus at 50 ug/well after 24 hrs by agar well diffusion method; conditions: read-out: DIZ
# Pseudomonas aeruginosa [38] = test: Antibacterial activity against Pseudomonas aeruginosa at 12.5 ug/well after 24 hrs by agar well diffusion method; conditions: read-out: DIZ
SMILES,zone of inhibition at 25 µg/disc (Pseudomonas aeruginosa [1]) [mm],zone of inhibition at 50 µg/disc (Bacillus subtilis [2]) [mm],zone of inhibition at 25 µg/disc (Aspergillus niger [3]) [mm],zone of inhibition at 25 µg/disc (Bacillus subtilis [4]) [mm],zone of inhibition at 12.5 µg/disc (Staphylococcus aureus [7]) [mm],zone of inhibition at 25 µg/disc (Staphylococcus aureus [9]) [mm],zone of inhibition at 100 µg/disc (Bacillus subtilis [10]) [mm],inhibition zone (IZ) [11] [mm],inhibition zone (IZ) [13] [mm],zone of inhibition at 25 µg/disc (Klebsiella pneumoniae [14]) [mm],zone of inhibition at 50 µg/disc (Aspergillus niger [15]) [mm],zone of inhibition at 100 µg/disc (Staphylococcus aureus [18]) [mm],inhibition zone (IZ) [20] [mm],zone of inhibition at 12.5 µg/disc (Klebsiella pneumoniae [21]) [mm],zone of inhibition at 100 µg/disc (Pseudomonas aeruginosa [22]) [mm],zone of inhibition at 50 µg/disc (Klebsiella pneumoniae [24]) [mm],zone of inhibition at 12.5 µg/disc (Aspergillus niger [27]) [mm],zone of inhibition at 100 µg/disc (Klebsiella pneumoniae [30]) [mm],inhibition zone (IZ) [32] [mm],zone of inhibition at 100 µg/disc (Aspergillus niger [33]) [mm],also measured
Nc1nnc(CS(=O)(=O)/C=C\c2ccc(Cl)cc2)s1,26,30,29,29,22,23,32,34,35,34,31,26,37,32,34,36,27,38,41,32,MIC (Staphylococcus aureus [5]): 25 µg/mL; MBC (Pseudomonas aeruginosa [6]): 12.5 µg/mL; MIC [8]: 12.5 µg/mL; Ratio (Pseudomonas aeruginosa [12]): 2; MFC (Aspergillus niger [16]): 50 µg/mL; MBC (Staphylococcus aureus [17]): > 100 µg/mL; MIC (Aspergillus niger [19]): 12.5 µg/mL; MBC (Bacillus subtilis [23]): 100 µg/mL; MFC (Penicillium chrysogenum [25]): 25 µg/mL; MIC (Klebsiella pneumoniae [26]): 12.5 µg/mL; MIC (Pseudomonas aeruginosa [28]): 6.25 µg/mL; MBC (Klebsiella pneumoniae [29]): 50 µg/mL; Ratio (Penicillium chrysogenum [31]): 2; zone of inhibition at 50 µg/disc (Pseudomonas aeruginosa [34]): 28 mm; MIC (Bacillus subtilis [35]): 25 µg/mL; zone of inhibition at 12.5 µg/disc (Bacillus subtilis [36]): 28 mm; zone of inhibition at 50 µg/disc (Staphylococcus aureus [37]): 24 mm; zone of inhibition at 12.5 µg/disc (Pseudomonas aeruginosa [38]): 24 mm
Nc1nnc(CS(=O)(=O)c2c[nH]cc2-c2ccc(Cl)cc2)s1,22,23,17,22,17,19,25,29,32,30,19,23,34,28,26,32,15,34,37,21,MIC (Staphylococcus aureus [5]): 50 µg/mL; MBC (Pseudomonas aeruginosa [6]): 100 µg/mL; MIC [8]: 50 µg/mL; Ratio (Pseudomonas aeruginosa [12]): >2; MFC (Aspergillus niger [16]): 100 µg/mL; MBC (Staphylococcus aureus [17]): > 200 µg/mL; MIC (Aspergillus niger [19]): 25 µg/mL; MBC (Bacillus subtilis [23]): > 200 µg/mL; MFC (Penicillium chrysogenum [25]): > 200 µg/mL; MIC (Klebsiella pneumoniae [26]): 25 µg/mL; MIC (Pseudomonas aeruginosa [28]): 25 µg/mL; MBC (Klebsiella pneumoniae [29]): > 100 µg/mL; Ratio (Penicillium chrysogenum [31]): >2; zone of inhibition at 50 µg/disc (Pseudomonas aeruginosa [34]): 24 mm; MIC (Bacillus subtilis [35]): 50 µg/mL; zone of inhibition at 12.5 µg/disc (Bacillus subtilis [36]): 21 mm; zone of inhibition at 50 µg/disc (Staphylococcus aureus [37]): 21 mm; zone of inhibition at 12.5 µg/disc (Pseudomonas aeruginosa [38]): 20 mm
Nc1nnc(CS(=O)(=O)c2n[nH]cc2-c2ccc(Cl)cc2)s1,26,28,26,27,21,22,30,31,33,32,28,25,35,30,31,34,24,36,38,30,MIC (Staphylococcus aureus [5]): 50 µg/mL; MBC (Pseudomonas aeruginosa [6]): 50 µg/mL; MIC [8]: 12.5 µg/mL; Ratio (Pseudomonas aeruginosa [12]): >2; MFC (Aspergillus niger [16]): 100 µg/mL; MBC (Staphylococcus aureus [17]): 200 µg/mL; MIC (Aspergillus niger [19]): 25 µg/mL; MBC (Bacillus subtilis [23]): 100 µg/mL; MFC (Penicillium chrysogenum [25]): 50 µg/mL; MIC (Klebsiella pneumoniae [26]): 25 µg/mL; MIC (Pseudomonas aeruginosa [28]): 12.5 µg/mL; MBC (Klebsiella pneumoniae [29]): > 100 µg/mL; Ratio (Penicillium chrysogenum [31]): >2; zone of inhibition at 50 µg/disc (Pseudomonas aeruginosa [34]): 28 mm; MIC (Bacillus subtilis [35]): 25 µg/mL; zone of inhibition at 12.5 µg/disc (Bacillus subtilis [36]): 26 mm; zone of inhibition at 50 µg/disc (Staphylococcus aureus [37]): 23 mm; zone of inhibition at 12.5 µg/disc (Pseudomonas aeruginosa [38]): 24 mm
O=C(N[C@H](CO)[C@H](O)c1ccc([N+](=O)[O-])cc1)C(Cl)Cl [CHLORAMPHENICOL],27,36,,34,30,32,40,,,40,,37,,38,32,42,,44,,,MIC (Staphylococcus aureus [5]): 6.25 µg/mL; MIC (Klebsiella pneumoniae [26]): 12.5 µg/mL; MIC (Pseudomonas aeruginosa [28]): 6.25 µg/mL; zone of inhibition at 50 µg/disc (Pseudomonas aeruginosa [34]): 29 mm; MIC (Bacillus subtilis [35]): 6.25 µg/mL; zone of inhibition at 12.5 µg/disc (Bacillus subtilis [36]): 32 mm; zone of inhibition at 50 µg/disc (Staphylococcus aureus [37]): 35 mm; zone of inhibition at 12.5 µg/disc (Pseudomonas aeruginosa [38]): 25 mm
CC(=O)N1CCN(c2ccc(OCC3COC(Cn4ccnc4)(c4ccc(Cl)cc4Cl)O3)cc2)CC1 (stereo not drawn) [KETOCONAZOLE],,,31,,,,,34,36,,34,,37,,,,29,,39,37,MIC [8]: 12.5 µg/mL; MIC (Aspergillus niger [19]): 6.25 µg/mL
Nc1nnc(CS(=O)(=O)c2n[nH]cc2-c2ccccc2)s1,23,27,25,26,20,21,29,30,32,28,27,24,34,26,27,30,23,32,36,29,zone of inhibition at 50 µg/disc (Pseudomonas aeruginosa [34]): 25 mm; zone of inhibition at 12.5 µg/disc (Bacillus subtilis [36]): 25 mm; zone of inhibition at 50 µg/disc (Staphylococcus aureus [37]): 22 mm; zone of inhibition at 12.5 µg/disc (Pseudomonas aeruginosa [38]): 22 mm
